From paper PMC3319690 (Journal of Immunology (Baltimore, Md. : 1950), 2008)

What was measured:
CD8^+ T cells [1] = details: mouse, in vivo
CD8^+ T cells [2] = details: mouse, in vivo; remark: listed apart in the source
CD8^+ T cells [3] = details: mouse, in vivo; remark: listed apart in the source
CD8^+ T cells [4] = assay type: in vivo, mouse
[5] = test system: naive, epitope-specific precursor CD8^+ T cells; design: species or system mouse; details: for Naive epitope-specific CD8^+ T cells per mouse: spleen and lymph nodes of individual naive H-2^b mice, average, n = 15–19, tetramer-based enrichment
[6] = test system: naive, epitope-specific precursor CD8^+ T cells; details: indirect titration of TCR transgenic T cells; cited from earlier work

Row | Substance | IFN-γ response to wild-type epitopes in GPVNPV-inoculated mice (CD8^+ T cells [1]) | CD8^+ T cell response in F1 hybrid mice (CD8^+ T cells [2]) | CD8^+ T cell response in rVACV-immunized mice (CD8^+ T cells [3]) | Response to single peptide immunization relative to peptide pool immunization (CD8^+ T cells [4]; Fig. 8A vs Fig. 6, wild-type GP33–41 peptide) [fold] | CD8^+ T cell response after peptide pool immunization (CD8^+ T cells [4]; pool of 28 peptides, day 11–12, H-2^b mice) | Precursor frequency relative to NP396–404/D^b-specific precursors ([5]; naive H-2^b mice) [fold] | Naive epitope-specific CD8^+ T cells per mouse [5] [CD8^+ T cells] | Previous estimate of GP33–41/D^b-specific precursors [6]
1 | GP33–41 | significantly diminished amounts of IFN-γ | still elicited robust T cell responses | the LCMV-specific response remained focused on the major dominant epitopes | ~2 | relatively strongly recognized | 4 | 449 | 100–200 precursors
2 | NP205–212 (YTVKYPNL; UniProt P09992 205-212, looked up, fragment) |  |  |  |  |  |  | 57 | 
3 | GP276–286 (SGVENPGGYCL; UniProt P09991 276-286, looked up, fragment) | significantly diminished amounts of IFN-γ |  |  |  |  |  |  | 
